PubChem BioAssay (NCI)
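Test compounds were applied to cells in 96-well plates for 48 hours at 5 doses. GI50 is the concentration that inhibits growth by half. TGI marks complete inhibition of growth.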

What was measured:
Assay in all cases: NCI anticancer screen, dose series, 48 h
TK-10 renal = tested on: TK-10 renal
SK-MEL-5 melanoma = tested on: SK-MEL-5 melanoma
SK-MEL-28 melanoma = tested on: SK-MEL-28 melanoma
NCI-H522 lung = tested on: NCI-H522 lung
OVCAR-5 ovarian = tested on: OVCAR-5 ovarian
IGROV1 ovarian = tested on: IGROV1 ovarian
OVCAR-3 ovarian = tested on: OVCAR-3 ovarian
UACC-257 melanoma = tested on: UACC-257 melanoma
M14 melanoma = tested on: M14 melanoma
MDA-MB-231 breast = tested on: MDA-MB-231 breast

| Structure (SMILES) | TGI (TK-10 renal) | TGI (SK-MEL-5 melanoma) | TGI (SK-MEL-28 melanoma) | TGI (NCI-H522 lung) | TGI (OVCAR-5 ovarian) | TGI (IGROV1 ovarian) | TGI (OVCAR-3 ovarian) | TGI (UACC-257 melanoma) | TGI (M14 melanoma) | GI50 (TK-10 renal) | GI50 (SK-MEL-5 melanoma) | GI50 (SK-MEL-28 melanoma) | GI50 (NCI-H522 lung) | GI50 (OVCAR-5 ovarian) | GI50 (IGROV1 ovarian) | GI50 (MDA-MB-231 breast) | TGI (MDA-MB-231 breast) | GI50 (OVCAR-3 ovarian) | GI50 (UACC-257 melanoma) | GI50 (M14 melanoma) |
| --- | --- | --- | --- | --- | --- | --- | --- | --- | --- | --- | --- | --- | --- | --- | --- | --- | --- | --- | --- | --- |
| CCCN(CCC)c1c([N+](=O)[O-])cc(C(=O)N(CCO)CCO)cc1[N+](=O)[O-] | > 100 µM | > 100 µM | > 100 µM | > 100 µM | > 100 µM | > 100 µM | > 100 µM | > 100 µM | > 100 µM | – | – | – | – | – | – | – | – | – | – | – |
| S=C=NCCc1ccccc1 | 3.34 µM | 1.39 µM | 2.27 µM | 0.58 µM | 2.96 µM | 1.37 µM | 2.09 µM | 2.75 µM | 1.94 µM | – | – | – | – | – | – | – | – | – | – | – |
| CC(C)(C)OC(=O)c1cccnc1/C=N/O | > 100 µM | > 100 µM | > 100 µM | > 100 µM | > 100 µM | > 100 µM | > 100 µM | > 100 µM | > 100 µM | – | – | – | – | – | – | – | – | – | – | – |
| COC1OC(C)C2OC(C)(C)OC2C1OC(C)=O (stereo not drawn) | > 100 µM | > 100 µM | > 100 µM | > 100 µM | > 100 µM | > 100 µM | > 100 µM | > 100 µM | > 100 µM | – | – | – | – | – | – | – | – | – | – | – |
| COc1ccc(N(/C=C/C(=O)C(F)(F)F)CC(=O)c2ccc(Cl)cc2)cc1 | 40.8 µM | 29.5 µM | 36.2 µM | 30 µM | 38.5 µM | 21.7 µM | 36.2 µM | 37.7 µM | – | 17.7 µM | 15 µM | 18.1 µM | 12.7 µM | 18.5 µM | 6.14 µM | 10.4 µM | 24.4 µM | 12.8 µM | 18.4 µM | – |
| O=c1[nH]c(=O)n(C2OC(CO)C(O)C2O)cc1OCC(F)(F)F (stereo not drawn) | > 100 µM | > 100 µM | > 100 µM | > 100 µM | > 100 µM | > 100 µM | > 100 µM | > 100 µM | > 100 µM | – | – | – | – | – | – | – | – | – | – | – |
| COc1ccc(C(=O)N/N=C/c2c(C)n(C)n(-c3ccccc3)c2=O)cc1 | > 100 µM | – | > 100 µM | > 100 µM | – | > 100 µM | > 100 µM | > 100 µM | > 100 µM | – | – | – | – | – | – | – | – | – | – | – |
| COC(=O)/C=c1\s/c(=C\C(=O)OC)c2ccccc12 | > 100 µM | > 100 µM | > 100 µM | > 100 µM | > 100 µM | > 100 µM | > 100 µM | > 100 µM | > 100 µM | – | – | – | – | – | – | – | – | – | – | – |
| C#CCN(C(=O)C(F)(F)F)c1ccc(C(=O)c2ccc(N(CC#C)C(=O)C(F)(F)F)cc2)cc1 | > 100 µM | > 100 µM | > 100 µM | 49.4 µM | > 100 µM | > 100 µM | 88.6 µM | 86.6 µM | > 100 µM | – | – | – | – | – | – | – | – | – | – | – |
| CCCCCCCCCCCCCC(=O)CSCCNC(=O)CCNC(=O)[C@@H](O)C(C)(C)COP(=O)(O)OP(=O)(O)OCC1OC(n2cnc3c(N)ncnc32)C(O)C1OP(=O)(O)O (stereo partly drawn) | > 100 µM | 34.5 µM | 34.3 µM | 25.5 µM | 83.1 µM | 28.6 µM | > 100 µM | 36.1 µM | 32 µM | – | – | – | – | – | – | – | – | – | – | – |
| C/C=C/COC(=O)CO[N+](=O)[O-] | > 100 µM | – | – | > 100 µM | > 100 µM | > 100 µM | > 100 µM | > 100 µM | > 100 µM | – | – | – | – | – | – | – | – | – | – | – |
| CCN(CC)CCn1[nH]c2c3ccc(=O)cc3sc3c(NCCN)ccc1c32 | 11.3 µM | 2.91 µM | 3.28 µM | – | 4.87 µM | 8.57 µM | 8.17 µM | 4.01 µM | – | – | – | – | – | – | – | – | – | – | – | – |
| CCn1c2ccccc2c2ccc(C3C(C(=O)OC)=C(C)NC(C)=C3C(=O)OC)cc21 | > 100 µM | > 100 µM | > 100 µM | – | > 100 µM | > 100 µM | > 100 µM | > 100 µM | – | – | – | – | – | – | – | – | > 100 µM | – | – | – |
| O=c1[nH]c(=O)n(C2CC(O)C(CO)O2)cc1C#Cc1ccc(F)cc1 (stereo not drawn) | – | > 100 µM | > 100 µM | > 100 µM | > 100 µM | > 100 µM | > 100 µM | > 100 µM | > 100 µM | – | – | – | – | – | – | – | – | – | – | – |
| Cc1ccc(C)c(NC(=O)CC2SC(=Nc3ccccc3Cl)NC2=O)c1 (stereo not drawn) | > 100 µM | > 100 µM | > 100 µM | 96.5 µM | > 100 µM | > 100 µM | > 100 µM | > 100 µM | > 100 µM | – | – | – | – | – | – | – | – | – | – | – |
| Cc1nc2sccn2c1C(=O)NC(=O)Nc1ccc(Cl)cc1 | > 100 µM | > 100 µM | > 100 µM | > 100 µM | > 100 µM | > 100 µM | > 100 µM | > 100 µM | > 100 µM | – | – | – | – | – | – | – | – | – | – | – |
| CCOC(=O)C(CNc1ccc(O)cc1)NC(=O)c1ccccc1 (stereo not drawn) | > 100 µM | > 100 µM | > 100 µM | > 100 µM | > 100 µM | > 100 µM | > 100 µM | > 100 µM | > 100 µM | – | – | – | – | – | – | – | – | – | – | – |
| COc1cc(C2C3=C(COC3=O)N(CCO)c3cc4c(cc32)OCO4)cc(OC)c1O (stereo not drawn) | > 50 µM | 3.42 µM | > 50 µM | 0.289 µM | > 50 µM | 6.08 µM | 2.22 µM | – | 7.64 µM | 4.54 µM | 0.832 µM | > 50 µM | 0.0267 µM | 23.1 µM | 1.47 µM | 6.07 µM | 46.2 µM | 0.982 µM | – | 1.49 µM |
| O=C(C/C(CCC(=O)N(Cc1ccccc1)Cc1ccccc1)=N/Nc1ccc([N+](=O)[O-])cc1[N+](=O)[O-])c1ccccc1 | > 100 µM | – | > 100 µM | > 100 µM | > 100 µM | > 100 µM | > 100 µM | > 100 µM | > 100 µM | – | – | – | – | – | – | – | – | – | – | – |
| CCOC(=O)/C(=C/c1ccc(N(CCC#N)CCC#N)cc1C)NC(=O)/C=C/c1ccccc1 | > 100 µM | > 100 µM | > 100 µM | > 100 µM | > 100 µM | > 100 µM | > 100 µM | > 100 µM | > 100 µM | – | – | – | – | – | – | – | – | – | – | – |
| Cc1cc(O)c(/C=N/C(=S)Nc2ccccc2)c(=O)o1 | > 100 µM | > 100 µM | – | > 100 µM | > 100 µM | > 100 µM | > 100 µM | > 100 µM | > 100 µM | – | – | – | – | – | – | – | > 100 µM | – | – | – |
